Reference: US20250089717A1, “FUNGICIDAL HALOMETHYL KETONES, HYDRATES AND ENOL ETHERS AND THEIR MIXTURES” (FMC CORPORATION, priority 2023, published 2025)
“And” between values parts separate entries of the source, which are not always exact repeats. Identical values can stand only once.

test system: Phakopsora pachyrhizi; assay: Test A: preventive spray on soybean seedlings, Asian soybean rust, visual disease rating; type: in vivo; conditions: rate 10 ppm
Excerpt: General protocol for preparing test suspensions for Test A: the test compounds were first dissolved in acetone in an amount equal to 3% of the final volume and then suspended at the desired concentration (in ppm) in acetone and purified water (50/50 mix by volume) containing 250 ppm of the surfactant PEG400 (polyhydric alcohol esters). The resulting test suspensions were then used in Test A.
The test solution was sprayed to the point of run-off on soybean seedlings. The following day the seedlings were inoculated with a spore suspension of Phakopsora pachyrhizi (the causal agent of Asian soybean rust) and incubated in a saturated atmosphere at 22° C. for 24 h and then moved to a growth chamber at 22° C. for 8 days, after which time visual disease ratings were made.
A rating of 100 indicates 100% disease control and a rating of 0 indicates no disease control (relative to the controls).

Row | SMILES | Test A rating (100 = 100% disease control, 0 = no disease control relative to the controls)
1 | CCO/C(=C\Oc1ccc(Cn2cc(C(=NOCC3CC3)OC)cn2)cc1)C(F)(F)F [compound 34] | 97%
2 | CCO/C(=C\Oc1ccc(Cn2cc(COC(=O)C(C)(C)C)cn2)c(F)c1F)C(F)(F)F [Compound 72] | 100%
3 | C=CCONC(=O)c1cnn(CCc2ccc(O/C=C(\OCC)C(F)(F)F)cc2)c1 [compound 62] | 100%
4 | CCO/C(=C\Oc1ccc(Cn2cccc(C(=O)NOCC3CC3)c2=O)cc1)C(F)(F)F [compound 104] | 100%
5 | CCO/C(=C\Oc1ccc(Cn2cc(COC(=O)C(CC)CC)cn2)cc1)C(F)(F)F [compound 36] | 100%
6 | C#CCOCc1cn(Cc2ccc(O/C=C(\OCC)C(F)(F)F)cc2)nn1 [Compound 38] | 78% and 88%
7 | C#CCONC(=O)c1cccn(Cc2ccc(O/C=C(\OCC)C(F)(F)F)cc2)c1=O [compound 100] | 98%
8 | C=CCOCc1cnn(Cc2ccc(O/C=C(\OCC)C(F)(F)F)cc2)c1 [compound 66] | 100%
9 | CCO/C(=C\Oc1ccc(Cn2cc(COC(=O)CC(C)(C)C)cn2)cc1)C(F)(F)F [compound 49] | 99%
10 | CCO/C(=C\Oc1ccc(Cn2cc(C(N)=NO)cn2)cc1)C(F)(F)F [compound 56] | 84%
11 | C=CCON(CC)C(=O)c1cnn(Cc2ccc(O/C=C(\OCC)C(F)(F)F)cc2)c1 [Compound 55, ethyl 1-[[4-[[(1Z)-2-ethoxy-3,3,3-trifluoro-1-propen-1-yl]oxy]phenyl]methyl]-N-(2-propen-1-yloxy)-1H-pyrazole-4-carboxamide] | 100%
12 | CCO/C(=C\Oc1ccc(Cn2cc(COC(=O)COC)nn2)cc1)C(F)(F)F [Compound 10] | 0%
13 | CCO/C(=C\Oc1ccc(Cn2cc(COC(=O)C3CCCC3)cn2)cc1)C(F)(F)F [compound 29] | 100%

same assay, conditions: rate 10 ppm, read-out: Test A rating (100 = 100% disease control, 0 = no disease control relative to the controls)

Row | SMILES | pest or weed control at 10 ppm
14 | O=C(OCc1cnn(Cc2ccc(OCC3(C(F)(F)F)OCCO3)cc2)c1)C1CCCC1 [Compound 4, [1-[[4-[[2-(trifluoromethyl)-1,3-dioxolan-2-yl]methoxy]phenyl]methyl]-1H-pyrazol-4-yl]methyl cyclopentanecarboxylate] | 90%
15 | CCCC(C)C(=O)OCc1cnn(Cc2ccc(O/C=C(\OCC)C(F)(F)F)cc2)c1 (stereo not drawn) [Compound 30, [1-[[4-[[(1Z)-2-ethoxy-3,3,3-trifluoro-1-propen-1-yl]oxy]phenyl]methyl]-1H-pyrazol-4-yl]methyl 2-methylpentanoate] | 100%
16 | CCO/C(=C\Oc1ccc(Cn2cc(COC(=O)N(C)OC)cn2)cc1)C(F)(F)F [Compound 18, (Z)-(1-(4-((2-ethoxy-3,3,3-trifluoroprop-1-en-1-yl)oxy)benzyl)-1H-pyrazol-4-yl)methyl methoxy(methyl)carbamate] | 100%
17 | C=CCONC(=O)c1cccc(Cc2ccc(O/C=C(\OCC)C(F)(F)F)cc2)n1 [Compound 109, 2-[[4-[[(1Z)-2-ethoxy-3,3,3-trifluoro-1-propen-1-yl]oxy]phenyl]methyl]-N-(2-propen-1-yloxy)-6-pyridinecarboxamide] | 100%
18 | CCO/C(=C\Oc1ccc(Cn2cc(COC(=O)CCSC)cn2)cc1)C(F)(F)F [Compound 50, [1-[[4-[[(1Z)-2-ethoxy-3,3,3-trifluoro-1-propen-1-yl]oxy]phenyl]methyl]-1H-pyrazol-4-yl]methyl 3-(methylthio)propanoate] | 100%
19 | CCO/C(=C\Oc1ccc(Cc2nc(C(=O)NOCC3CC3)cs2)cc1)C(F)(F)F [compound 116] | 100%
20 | CCO/C(=C\Oc1ccc(Cn2cc(COC(=O)C(C)(C)C)cn2)cc1)C(F)(F)F [Compound 47, [1-[[4-[[(1Z)-2-ethoxy-3,3,3-trifluoro-1-propen-1-yl]oxy]phenyl]methyl]-1H-pyrazol-4-yl]methyl 2,2-dimethylpropanoate] | 100%
21 | C=CCON(C)C(=O)c1cccc(Cc2ccc(O/C=C(\OCC)C(F)(F)F)cc2)n1 [Compound 108, 2-[[4-[[(1Z)-2-ethoxy-3,3,3-trifluoro-1-propen-1-yl]oxy]phenyl]methyl]-N-methyl-N-(2-propen-1-yloxy)-6-pyridinecarboxamide] | 100%

same assay, conditions: rate 50 ppm

Row | SMILES | Test A rating (100 = 100% disease control, 0 = no disease control relative to the controls)
22 | O=C(CC1CC1)OCc1cnn(Cc2ccc(OCC3(C(F)(F)F)OCCO3)cc2)c1 [Compound 88] | 100%
23 | CC(C)CC(=O)OCc1cnn(Cc2ccc(OCC3(C(F)(F)F)OCCO3)cc2)c1 [Compound 92] | 100%
24 | O=C(CC(F)(F)F)OCc1cnn(Cc2ccc(OCC3(C(F)(F)F)OCCO3)cc2)c1 [Compound 93] | 100%
